Experimental data reported in PMC2213500 (The Journal of Experimental Medicine, 2000).

Tests used:
[1] = target: wtDR1 (Homo sapiens, UniProt P01903+P01911, A100R/D57E/F55L/F60I/F76Y/I96L/L162R/M171V/P40L/Q125E/R42F/V115G/Y59C); assay type: binding
[2] = target: soluble wild-type HLA-DR1 (empty, no added peptide) (human); assay: intrinsic tryptophan fluorescence

Chain of soluble HLA-DM (P28067 27-233): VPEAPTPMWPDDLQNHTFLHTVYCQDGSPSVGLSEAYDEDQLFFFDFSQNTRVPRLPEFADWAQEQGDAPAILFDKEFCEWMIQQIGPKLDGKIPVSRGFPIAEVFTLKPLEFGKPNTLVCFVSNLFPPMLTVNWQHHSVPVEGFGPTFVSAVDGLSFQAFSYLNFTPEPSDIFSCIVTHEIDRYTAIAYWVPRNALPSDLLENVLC
Chain of soluble HLA-DM (P28068 19-218): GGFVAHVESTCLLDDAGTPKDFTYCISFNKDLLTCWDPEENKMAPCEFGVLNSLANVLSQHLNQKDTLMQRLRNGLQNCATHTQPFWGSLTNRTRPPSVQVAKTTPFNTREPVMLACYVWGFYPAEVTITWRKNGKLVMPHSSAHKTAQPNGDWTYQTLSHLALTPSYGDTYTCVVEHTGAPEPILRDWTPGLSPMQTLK

| Substance | DR1 binding of control peptide [1] | increase of tryptophan fluorescence on mixing [2] |
| --- | --- | --- |
| CLSPFPFDL | non–DR1-binding |  |
| soluble HLA-DM (from UniProt P28067;P28068) (complex) |  | 10 to 12% |
